Test results taken from patent publication US5650411A, “Substituted azolone derivatives” (Janssen Pharmaceutica N.V., priority 1993, dated 1997).
Counter-ions that a name gives are not always drawn.

Test system: Helicobacter pylori
Assay: Minimal inhibitory concentration (MIC) against Helicobacter pylori, urease read-out, 5 clinical strains
Format: cell-based
Settings: 5 H. pylori clinical strains, 10% blood agar, 48 h at 37° C., microaerophilic, read-out: MIC
Procedure: The anti-Helicobacter activity of the subject compounds was assessed by the following in-vitro test procedure.
The activity of test compounds against Helicobacter pylori was determined against a standard set of 5 H. priori strains obtained from clinical material. Minimal inhibitory concentrations (MICs) were determined by measuring the activity of H. pylori urease after treatment of growing cultures of the bacteria with the antimicrobial agents.
The test compounds were dissolved in DMSO at a concentration of 10^-3 M. A dilution to 10^-4 M in DMSO was also prepared. 10 μl volumes of these solutions were pipetted in the wells of Repli-Dishes (®Sterilin). Wells containing DMSO alone were included as controls in each Repli-Dish. Ampicillin ((+)-6-[(2-amino-2-phenylacetyl)amino]-3,3-dimethyl-7-oxo-4-thia-1-azabicyclo[3.2.0]heptane-2-carboxylic acid trihydrate) and metronidazole (2-methyl-5-nitro-1H-imidazol-1-ethanol) were included as reference compounds in each batch of tests. (These compounds were tested at final concentrations of 10^-5, 10^-6, 10^-7 and 10^-8 M). Test plates were stored at 4° C. until used. The five isolates of H. pylori were maintained by subculture on 10% blood agar every 2 or 3 days. The bacteria were grown at 37° C. under an atmosphere containing 5% oxygen, 10% CO2 and 85% nitrogen. Suspensions of Helicobacter pylori for inoculum were prepared in Brain-heart infusion broth and adjusted to an absorbance of 1.5±0.3 at […].
Freshly prepared 10% blood agar held at 45° C. was added in 1 ml volumes to the wells of the test plates, thus diluting the test compounds to 10^-5 and 10^-6 M. The medium was allowed to cool, then 10 μl volumes of bacterial suspension were pipetted on the agar surface. The plates were incubated for 48 h at 37° C. under the microaerophilic atmosphere described above. […] After the 48 h of incubation, 1 ml volumes of urease broth were gently added to each Repli-Dish well and the plates were incubated at 37° C. for 2 h. 100 μl samples of fluid from each well were then pipetted into the wells of 96-place microdilution plates. A purple colour was interpreted as growth, yellow-orange as no growth of H. pylori. By this means a clear end-point was obtained, from which the inhibitory effects could be determined.
Table 1 summarizes the MIC values determined by the above procedure for a subset of the subject compounds.

MIC, ≤ 0.001 µM:
CCC(C(=O)c1ccc(Cl)cc1)n1ncn(-c2ccc(N3CCN(c4ccc(OC)c(OC)c4)CC3)nc2)c1=O (racemic) [compound 48, (±) -2-[1-(4-chlorobenzoyl)propyl]-4-[6-[4-(3,4-dimethoxyphenyl)-1-piperazinyl]-3-pyridinyl]-2,4-dihydro-3H-1,2,4-triazol-3-one dihydrochloride]

MIC, 0.1 µM:
CC(C)(C(O)c1ccc(Br)cc1)n1ncn(-c2ccc(N3CCN(c4ccc(O)cc4)CC3)cc2)c1=O (racemic) [compound 21, (±)-2-[2-(4-bromophenyl)-2-hydroxy-1,1-dimethylethyl]-2,4-dihydro-4-[4-[4-(4-hydroxyphenyl)-1-piperazinyl]phenyl]-3H-1,2,4-triazol-3-one]
CCC[C@H]([C@H](O)c1ccc(Cl)cc1)n1ncn(-c2ccc(N3CCN(c4cccc(OC)c4)CC3)nc2)c1=O (relative stereo) [compound 40, (±)-(R* ,R*)-2-[1-[(4-chlorophenyl)hydroxymethyl]butyl]-2,4-dihydro-4-[6-[4-(3-methoxyphenyl)-1-piperazinyl]-3-pyridinyl]-3H-1,2,4-triazol-3-one]
CCC(C(=O)c1ccc(Cl)cc1)n1ncn(-c2ccc(N3CCN(c4ccc(O)cn4)CC3)cc2)c1=O (racemic) [compound 27, (±)-2-[1-(4-chlorobenzoyl)propyl]-2,4-dihydro-4-[4-[4-(5-hydroxy-2-pyridinyl)-1-piperazinyl]phenyl]-3H-1,2,4-triazol-3-one]
CCC(C(=O)c1ccc(Cl)cc1)n1ncn(-c2ccc(N3CCN(c4ccc(OC)cc4)CC3)nc2)c1=O (racemic) [compound 1, (±)-2-[1-(4-chlorobenzoyl)propyl]-2,4-dihydro-4-[6-[4-(4-methoxyphenyl)-1-piperazinyl]-3-pyridinyl]-3H-1,2,4-triazol-3-one]
CCC(C(O)c1ccc(Cl)cc1)n1ncn(-c2ccc(N3CCN(c4ccc(O)cc4)CC3)nc2)c1=O (racemic) [compound 14, (±)-2-[1-[(4-chlorophenyl)hydroxymethyl]propyl]-2,4-dihydro-4-[6-[4-(4-hydroxyphenyl)-1-piperazinyl]-3-pyridinyl]-3H-1,2,4-triazol-3-one]
CCC(C(=O)c1ccc(Cl)cc1)n1ncn(-c2ccc(N3CCN(c4ccc(OC)nc4)CC3)cc2)c1=O (racemic) [compound 6, (±)-2-[1-(4-chlorobenzoyl)propyl]-2,4-dihydro-4-[4-[4-(6-methoxy-3-pyridinyl)-1-piperazinyl]phenyl]-3H-1,2,4-triazol-3-one]
CCC(C(=O)c1ccc(Cl)cc1)n1ncn(-c2ccc(N3CCN(c4ccccc4OC)CC3)nc2)c1=O (racemic) [compound 5, (±)-2-[1-(4-chlorobenzoyl)propyl]-2,4-dihydro-4-[6-[4-(2-methoxyphenyl)-1-piperazinyl]-3-pyridinyl]-3H-1,2,4-triazol-3-one]
CC(C(O)c1ccc(Cl)cc1)n1ccn(-c2ccc(N3CCN(c4ccc(O)cc4)CC3)cc2)c1=O (centres unmarked) [compound 12, 1-[2-(4-chlorophenyl)-2-hydroxy-1-methylethyl]-1,3-dihydro-3-[4-[4-(4-hydroxy-phenyl)-1-piperazinyl]phenyl]-2H-imidazol-2-one]
CCC(C(=O)c1ccc(Cl)cc1)n1ncn(-c2ccc(N3CCN(c4ccc(OC)cn4)CC3)cc2)c1=O (racemic) [compound 3, (±)-2-[1-(4-chlorobenzoyl)propyl]-2,4-dihydro-4-[4-[4-(5-methoxy-2-pyridinyl)-1-piperazinyl]phenyl]-3H-1,2,4-triazol-3-one]
CCC(C(=O)c1ccc(Cl)cc1)n1ncn(-c2ccc(N3CCC(c4cccc(OC)c4)CC3)nc2)c1=O (racemic) [compound 7, (±)-2-[1-(4-chlorobenzoyl)propyl]-2,4-dihydro-4-[6-[4-(3-methoxyphenyl)-1-piperidinyl]-3-pyridinyl]-3H-1,2,4-triazol-3-one]

MIC, 10 µM:
CCC(C(=O)c1ccc(Cl)cc1)n1ncn(-c2ccc(N3CCN(c4ccc(OC)cc4)CC3)cn2)c1=O (racemic) [compound 2, (±)-2-[1-(4-chlorobenzoyl)propyl]-2,4-dihydro-4-[5-[4-(4-methoxyphenyl)-1-piperazinyl]-2-pyridinyl]-3H-1,2,4-triazol-3-one]

MIC, 1 µM:
Cc1cc(N2CCN(c3ccc(-n4c(C)nn([C@H](C)[C@H](O)c5ccc(Cl)cc5Cl)c4=O)cc3)CC2)cc(C)c1O (single isomer, unassigned) [compound 32, (+)-(R*,R*)-2-[2-(2,4-dichlorophenyl)-2-hydroxy-1-methylethyl]-2,4-dihydro-4-[4-[4-(4-hydroxy-3,5-dimethylphenyl)-1-piperazinyl]phenyl]-5-methyl-3H-1,2,4-triazol-3-one dihydrate]
CC(C(O)c1ccc(Br)cc1)n1ccn(-c2ccc(N3CCN(c4ccc(O)cc4)CC3)cc2)c1=O (centres unmarked) [compound 9, [A]+[B]-1-[2-(4-bromophenyl)-2-hydroxy-1-methylethyl]-1,3-dihydro-3-[4-[4-(4-hydroxyphenyl)-1-piperazinyl]phenyl]-2H-imidazol-2-one]
